For assay [1], the target named is T1, hMAO-B (Homo sapiens, UniProt P27338).
T1 sequence (P27338 1-520): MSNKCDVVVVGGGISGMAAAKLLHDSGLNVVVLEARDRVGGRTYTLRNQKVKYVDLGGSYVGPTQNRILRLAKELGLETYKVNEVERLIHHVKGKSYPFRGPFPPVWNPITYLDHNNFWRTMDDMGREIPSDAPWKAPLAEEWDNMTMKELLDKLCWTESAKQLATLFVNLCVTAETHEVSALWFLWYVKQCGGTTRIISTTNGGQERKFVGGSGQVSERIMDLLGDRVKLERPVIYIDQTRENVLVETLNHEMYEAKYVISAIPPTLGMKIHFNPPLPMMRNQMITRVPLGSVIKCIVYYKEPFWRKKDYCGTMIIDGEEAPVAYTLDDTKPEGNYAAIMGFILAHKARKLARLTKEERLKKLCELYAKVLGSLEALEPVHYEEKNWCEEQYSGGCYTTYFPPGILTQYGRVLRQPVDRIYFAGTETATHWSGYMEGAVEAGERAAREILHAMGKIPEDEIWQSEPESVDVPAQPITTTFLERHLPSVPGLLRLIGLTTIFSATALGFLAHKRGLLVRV
The assay can be described thus: hMAO-B fluorescence bioassay. Type of assay: biochemical. Particulars: for SI: selectivity index for the MAO-B isoform: ratio IC50(MAO-A)/IC50(MAO-B).

The target in another assay is T2, hMAO-A (Homo sapiens, UniProt P21397).
T2 sequence (P21397 1-527): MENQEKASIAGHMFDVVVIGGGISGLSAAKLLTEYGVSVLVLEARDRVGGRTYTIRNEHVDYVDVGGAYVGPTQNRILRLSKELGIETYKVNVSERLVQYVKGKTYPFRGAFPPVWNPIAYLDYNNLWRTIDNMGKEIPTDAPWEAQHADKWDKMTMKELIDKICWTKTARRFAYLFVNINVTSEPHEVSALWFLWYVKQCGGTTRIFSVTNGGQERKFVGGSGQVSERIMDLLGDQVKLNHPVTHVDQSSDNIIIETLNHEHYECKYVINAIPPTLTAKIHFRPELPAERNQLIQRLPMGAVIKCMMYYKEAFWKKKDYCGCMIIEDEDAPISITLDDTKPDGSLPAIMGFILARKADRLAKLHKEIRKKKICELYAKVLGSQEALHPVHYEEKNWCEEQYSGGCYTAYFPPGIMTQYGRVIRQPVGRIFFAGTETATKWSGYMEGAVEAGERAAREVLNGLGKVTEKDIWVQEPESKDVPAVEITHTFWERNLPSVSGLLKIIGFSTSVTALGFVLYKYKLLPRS
The assay can be described thus: hMAO-A fluorescence bioassay. In kind it is biochemical.

Assay [2] has as its target T1, hMAO-B. Put plainly: At-line nanofractionation hMAO-B screening of mixed standards. Type of assay: biochemical. The conditions noted are these: mixed standards 100 μmol/L.
The target of assay [3] is T1, hMAO-B. Put plainly: Reversibility of hMAO-B inhibition. Particulars: KYN 46 μmol/L. In kind it is biochemical.
In the next assay the test system is SH-SY5Y cells. The assay can be described thus: Neuroprotection against 6-OHDA-induced toxicity in SH-SY5Y cells. The conditions noted are these: Homo sapiens, read-out: EC50, neuroprotective effect. Type of assay: cell-based.

Like-named read-outs stand apart in the source and are kept apart here.

One may read the IC50 as the concentration at which inhibition is half-maximal. Take `O=C(O)/C=C/c1ccc(O)c(O)c1` [Caffeic acid]: the IC50 at hMAO-B [1] (Inhibition (IC50) hMAO-B, Table 1) worked out at 33.1 ± 7.57 µM; against hMAO-A it was 60.9 ± 5.85 µM. The “SI: selectivity index for the MAO-B isoform” value (“SI: selectivity index” for short) at hMAO-B [1] is 1.840.

For `COc1ccc(-c2coc3cc(O)ccc3c2=O)cc1O` [Calycosin, reference compound], the IC50 against hMAO-B [1] is 24 µM. At hMAO-B [2], the “Activity peak in bioactivity chromatogram” value is recorded as “displayed inhibitory activity”.

As for `O=C(/C=C/c1ccc(O)c(O)c1)O[C@@H]1C[C@](O)(C(=O)O)C[C@@H](O)[C@H]1O` [Chlorogenic acid], the results for the IC50 against hMAO-B [1] and on hMAO-A were 69.6 ± 14.4 µM and 82.4 ± 14.6 µM, respectively.

By EC50 is commonly meant the concentration at which the effect is half-maximal. Consider `CCCC[C@@H]1OC(=O)C2=CCCC[C@H]21` [Neocnidilide], for which the results for the IC50 on hMAO-B [1] and at hMAO-A were 0.494 ± 0.132 µM and 102 ± 13.1 µM, respectively. Moreover, at hMAO-B [1] (phthalides), the “Inhibitory activity against hMAO-B (in words)” value is on record as “highest activity”. Further, the “SI: selectivity index” value stood at 207.362 at hMAO-B [1] and 207 at hMAO-B [1] (listed as neocnidilide). Besides, at hMAO-B [3], the “Reversibility of hMAO-B inhibition” value is “reversible”. The EC50 with SH-SY5Y cells worked out at 1.16 µM.

Turning to `C#CCN[C@@H]1CCc2ccccc21` [Rasagiline], the EC50 in the assay on SH-SY5Y cells was found to be 0.896 µM. The “Activity peak in bioactivity chromatogram” value at hMAO-B [2] is on record as “displayed inhibitory activity”.

Turning to `C[C@H](NCc1ccc(OCc2cccc(F)c2)cc1)C(N)=O` [Safinamide, reference compound], the “Reversibility of hMAO-B inhibition” value at hMAO-B [3] is “reversible”. In the assay with SH-SY5Y cells, the EC50 came to 1.08 µM.

As to `COc1cc(C=O)ccc1O` [Vanillin], on hMAO-B [1], the half-inhibitory concentration (IC50) turned out to be 45.7 ± 2.6 µM and the “SI: selectivity index” value is 1.884. In addition, the 50% inhibitory concentration (IC50) against hMAO-A turned out to be 86.1 ± 15.3 µM.

Values taken from PMC10985270 (Acta Pharmaceutica Sinica. B, 2024).
